# From PubChem BioAssay AID1963845 (Molecular Pharmacology Branch, DTP, NCI, 2024)
# Tested on: 429239-143-T-J1-PDC complex spheroid viability
# Test: Anticancer human tumor 429239-143-T-J1-PDC patient-derived small cell lung carcinoma cell line growth inhibition [POLQ]
# Conditions: for IC50: curve of first compound; for viability, T/C: stronger effect = lower value
# Procedure, shortened: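 Three-cell-type spheroids modelling solid tumor plus stroma served as the readout system; POL inhibitors were tested individually and in combination, concentration ranges set by clinical Cmax where known.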
# 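Note: luminescence signal used as surrogate measure of viable cells; spheroids exposed to compounds for seven days before readout.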
# 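Throughout, for viability, T/C: 100% = DMSO vehicle control viability as luminescence relative to vehicle.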
smiles,measurement,setting,value
O=C(c1cc(Cc2n[nH]c(=O)c3ccccc23)ccc1F)N1CCN(C(=O)C2CC2)CC1 + Cc1cccc(N(C)C(=O)C2C(O)CCN2c2nc(C)cc(C(F)(F)F)c2C#N)c1,IC50,second compound 0.0316 µM,1570 nM
same,IC50,second compound 0.1 µM,1460 nM
same,IC50,second compound 0.316 µM,1650 nM
same,IC50,second compound 1 µM,1750 nM
same,IC50,second compound 3.16 µM,1880 nM
same,IC50,second compound 10 µM,1500 nM
same,"viability, T/C","second compound 0.0316 µM, first compound 0.0316 µM",104%
same,"viability, T/C","second compound 0.0316 µM, first compound 0.1 µM",84.5%
same,"viability, T/C","second compound 0.0316 µM, first compound 0.316 µM",82.9%
same,"viability, T/C","second compound 0.0316 µM, first compound 1 µM",65.4%
same,"viability, T/C","second compound 0.0316 µM, first compound 3.16 µM",28.9%
same,"viability, T/C","second compound 0.0316 µM, first compound 10 µM",19.9%
same,"viability, T/C","second compound 0.1 µM, first compound 0.0316 µM",85.1%
same,"viability, T/C","second compound 0.1 µM, first compound 0.1 µM",81.3%
same,"viability, T/C","second compound 0.1 µM, first compound 0.316 µM",78%
same,"viability, T/C","second compound 0.1 µM, first compound 1 µM",55.8%
same,"viability, T/C","second compound 0.1 µM, first compound 3.16 µM",35.3%
same,"viability, T/C","second compound 0.1 µM, first compound 10 µM",17.9%
same,"viability, T/C","second compound 0.316 µM, first compound 0.0316 µM",94.2%
same,"viability, T/C","second compound 0.316 µM, first compound 0.1 µM",82.5%
same,"viability, T/C","second compound 0.316 µM, first compound 0.316 µM",81.9%
same,"viability, T/C","second compound 0.316 µM, first compound 1 µM",61.3%
same,"viability, T/C","second compound 0.316 µM, first compound 3.16 µM",35%
same,"viability, T/C","second compound 0.316 µM, first compound 10 µM",18.7%
same,"viability, T/C","second compound 1 µM, first compound 0.0316 µM",83.5%
same,"viability, T/C","second compound 1 µM, first compound 0.1 µM",78.9%
same,"viability, T/C","second compound 1 µM, first compound 0.316 µM",80.6%
same,"viability, T/C","second compound 1 µM, first compound 1 µM",63.4%
same,"viability, T/C","second compound 1 µM, first compound 3.16 µM",35.5%
same,"viability, T/C","second compound 1 µM, first compound 10 µM",18.6%
same,"viability, T/C","second compound 3.16 µM, first compound 0.0316 µM",92.6%
same,"viability, T/C","second compound 3.16 µM, first compound 0.1 µM",78.7%
same,"viability, T/C","second compound 3.16 µM, first compound 0.316 µM",81.5%
same,"viability, T/C","second compound 3.16 µM, first compound 1 µM",66.3%
same,"viability, T/C","second compound 3.16 µM, first compound 3.16 µM",36.5%
same,"viability, T/C","second compound 3.16 µM, first compound 10 µM",21%
same,"viability, T/C","second compound 10 µM, first compound 0.0316 µM",89.5%
same,"viability, T/C","second compound 10 µM, first compound 0.1 µM",91.9%
same,"viability, T/C","second compound 10 µM, first compound 0.316 µM",70.9%
same,"viability, T/C","second compound 10 µM, first compound 1 µM",58.2%
same,"viability, T/C","second compound 10 µM, first compound 3.16 µM",37%
same,"viability, T/C","second compound 10 µM, first compound 10 µM",18.7%
